Experimental data reported in US4963541A, “Pyrimido-pyrimidine lipoxygenase inhibiting compounds” (Abbott Laboratories, priority 1989, dated 1990).

Experiments:
[1] = Drugs of the Future, 8, 1023, 1983; cited from earlier work
[2] = tested on: tumor cell growth; conditions: in rats; Ger. Offen. 2931, 573; cited from earlier work
[3] = target: T1, 5-lipoxygenase (Rattus norvegicus, UniProt P12527); assay: Inhibition of 5-lipoxygenase activity (20,000x g supernatant from homogenized RBL-1 cells); format: biochemical; conditions: In vitro, 20,000x g supernatant from homogenized RBL-1 cells
T1 construct: 20,000x g supernatant from homogenized RBL-1 cells; endogenous in cells; host or cells: RBL-1 cells (20,000x g supernatant of homogenate)
T1 sequence (P12527 1-673): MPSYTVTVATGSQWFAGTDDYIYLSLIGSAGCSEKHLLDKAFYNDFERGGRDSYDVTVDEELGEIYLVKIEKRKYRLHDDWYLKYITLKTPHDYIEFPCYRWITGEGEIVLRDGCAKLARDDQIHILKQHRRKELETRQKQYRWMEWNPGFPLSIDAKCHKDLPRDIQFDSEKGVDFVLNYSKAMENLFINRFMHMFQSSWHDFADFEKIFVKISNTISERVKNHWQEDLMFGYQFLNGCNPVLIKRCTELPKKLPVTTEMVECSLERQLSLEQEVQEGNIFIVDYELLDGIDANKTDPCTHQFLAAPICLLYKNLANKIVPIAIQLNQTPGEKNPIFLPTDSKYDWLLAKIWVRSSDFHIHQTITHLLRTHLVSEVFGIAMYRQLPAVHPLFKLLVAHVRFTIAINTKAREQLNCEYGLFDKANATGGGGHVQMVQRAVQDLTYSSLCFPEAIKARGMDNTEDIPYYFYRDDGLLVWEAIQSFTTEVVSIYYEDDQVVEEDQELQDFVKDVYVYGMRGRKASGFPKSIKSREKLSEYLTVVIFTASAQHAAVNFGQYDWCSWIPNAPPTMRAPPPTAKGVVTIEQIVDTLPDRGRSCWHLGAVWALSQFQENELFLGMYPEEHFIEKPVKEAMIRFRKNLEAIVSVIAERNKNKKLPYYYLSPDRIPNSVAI
Experimental: Inhibition of 5-lipoxygenase activity was determined using the 20,000x g supernatant from homogenized RBL-1 cells in a similar manner as that described by Dyer and coworkers (Dyer, R.D.; Haviv, F,; Hanel, A. M.; Bornemier, D. A.; Carter, G. W. Fed. Proc., Fed. Am. Soc. Exp. Biol. 1984, 43, 1462A). IC50 values (concentration of compound producing 50% enzyme inhibition) were calculated by linear regression analysis of percentage inhibition versus log inhibitor concentration plots.

[4] = tested on: 5-lipoxygenase; conditions: Young, Dyer, Carter, Federation Proceedings 44(4):904, 1985; cited from earlier work

| Compound | IC50 [3] [nM] | also measured |
| --- | --- | --- |
| CCN(CC)c1nc(N(CCO)CCOC)nc2c(N(CC)CC)nc(N(CCO)CCOC)nc12 [2,6-bis-(2-hydroxyethyl-2-methoxyethylamino)-4,8-bis-(diethylamino)pyrimido[5,4-d]pyrimidine] | – | reported to be a hypertensive agent [1]: hypertensive agent |
| OCCN(CCO)c1nc(N2CCCCC2)c2nc(N(CCO)CCO)ncc2n1 [2,6-bis-(diethanolamino)-4-piperidinopyrimido[5,4d]pyridimine] | – | inhibit tumor cell growth [2]: shown to inhibit tumor cell growth in rats |
| CN(CCO)c1nc(N2CCCCC2)c2nc(N(C)CCO)nc(N3CCCCC3)c2n1 [Example 1, 2,6-bis-2-(Methylamino)ethanol-4,8-bis-N-piperidinopyrimido[5,4-d]pyrimidine] | 340 | – |
| OCCNc1nc(N2CCCCC2)c2nc(NCCO)nc(N3CCCCC3)c2n1 [Example 2, 2,6-bis-Aminoethanol-4,8-bis-N-piperidinopyrimido[5,4-d]pyrimidine] | 2900 | – |
| CN(CCO)c1nc(N2CCCCCC2)c2nc(N(C)CCO)nc(N3CCCCCC3)c2n1 [Example 3, 2,6-bis-2-(Methylamino)ethanol-4,8-bis-N-perhydroazepinepyrimido-[5,4-d]pyrimidine] | 300 | – |
| CN(CCO)c1nc(N2CCCCCCC2)c2nc(N(C)CCO)nc(N3CCCCCCC3)c2n1 [Example 4, 2,6-bis-2-(Methylamino)ethanol-4,8-bis-N-perhydroazocinepyrimido[5,4-d]pyrimidine] | 920 | – |
| OCCN(CCO)c1nc(N2CCCCC2)c2nc(N(CCO)CCO)nc(N3CCCCC3)c2n1 [dipyridamole, 2,6-bis-(diethanolamino)-4,8-dipiperidinopyrimido[5,4-d]pyrimidine] | – | reported to be an inhibitor of 5-lipoxygenase [4]: inhibitor of 5-lipoxygenase |
